The source of these data is patent US6689790B2, “Substituted triazolopyridine compounds” (Hoffmann-La Roche Inc., priority 2001, dated 2004).

pKi: −log10 of the molar value.

The target of this test is T1, human adenosine A2A receptor (Homo sapiens, UniProt P29274).
T1 construct: expressed in transfected cells; host or cells: CHO cells, semliki forest virus expression system; washed membranes
T1 sequence (P29274 whole entry): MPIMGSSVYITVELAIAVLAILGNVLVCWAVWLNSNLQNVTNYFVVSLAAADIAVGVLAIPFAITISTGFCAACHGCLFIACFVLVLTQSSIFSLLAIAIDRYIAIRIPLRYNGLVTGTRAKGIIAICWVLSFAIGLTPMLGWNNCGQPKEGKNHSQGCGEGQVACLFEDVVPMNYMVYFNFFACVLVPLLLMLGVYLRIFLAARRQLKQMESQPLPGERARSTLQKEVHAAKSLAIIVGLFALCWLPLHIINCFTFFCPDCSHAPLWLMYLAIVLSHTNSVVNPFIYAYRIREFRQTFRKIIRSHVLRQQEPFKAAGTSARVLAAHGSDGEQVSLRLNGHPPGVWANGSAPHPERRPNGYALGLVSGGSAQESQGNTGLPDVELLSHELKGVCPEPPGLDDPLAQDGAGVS
Description: [3H]-SCH-58261 binding assay, human adenosine A2A receptor (CHO cell membranes, SPA). As to conditions: [3H]-SCH-58261 displacement; list of examples 10-108; read-out: hA2a Ki. How it is done: Human Adenosine A2A Receptor
The human adenosine A2A receptor was recombinantly expressed in chinese hamster ovary (CHO) cells using the semliki forest virus expression system. Cells were harvested, washed twice by centrifugation, homogenized and again washed by centrifugation. The final washed membrane pellet was suspended in a Tris (50 mM) buffer containing 120 mM NaCl, 5 mM KCl, 2 mM CaCl2 and 10 mM MgCl2 (pH 7.4) (buffer A). […] Compounds were tested at 10 concentrations from 10 μM-0.3 nM. All assays were conducted in duplicate and repeated at least two times. Assay plates were incubated for 1 hour at room temperature before centrifugation and then bound ligand determined using a Packard Topcount scintillation counter. IC50 values were calculated using a non-linear curve fitting program and Ki values calculated using the Cheng-Prussoff equation.
As to `COCC1CCCN1C(=O)c1cc(N)c2nc(-c3ccccc3)nn2c1` (stereo in doubt) [Example 75, (8-Amino-2-phenyl-[1,2,4]triazolo[1,5-a]pyridin-6-yl)-((S)-2-methoxymethyl-pyrrolidin-1-yl)-methanone], the negative logarithm of the Ki (pKi) is 6.38.
`COC[C@@H]1CCCN1C(=O)c1cc(N)c2nc(-c3ccc(C)o3)nn2c1` (stereo in doubt) [Example 86, [8-Amino-2-(5-methyl-furan-2-yl)-[1,2,4]triazolo[1,5-a]pyridin-6-yl]-(2-methoxymethyl-pyrrolidin-1-yl)-methanone]: the pKi is 6.64.
As for `COCC1CCCN1C(=O)c1cc(N)c2nc(-c3ccc(C)s3)nn2c1` (stereo in doubt) [Example 97, [8-Amino-2-(5-methyl-thiophen-2-yl)-[1,2,4]triazolo[1,5-a]pyridin-6-yl]-((S)2-methoxymethyl-pyrrolidin-1-yl)-methanone], the figure is 6.37.
Regarding `Nc1cc(C(=O)N2CCCCC2)cn2nc(-c3ccccn3)nc12` [Example 27, (8-Amino-2-pyridin-2-yl-[1,2,4]triazolo[1,5-a]pyridin-6-yl)-piperidin-1-yl-methanone], the negative logarithm of the Ki (pKi) is 6.26.
For `CC1CCCN1C(=O)c1cc(N)c2nc(-c3ccccn3)nn2c1` (centres unmarked) [Example 28, (8-Amino-2-pyridin-2-yl-[1,2,4]triazolo[1,5-a]pyridin-6-yl)-(2-methyl-pyrrolidin-1-yl)-methanone], the pKi is 6.43.
Next, `CCN(CC)C(=O)C1CCCN(C(=O)c2cc(N)c3nc(-c4ccccn4)nn3c2)C1` (centres unmarked) [Example 29, 1-(8-Amino-2-pyridin-2-yl-[1,2,4]triazolo[1,5-a]pyridine-6-carbonyl)-piperidine-3-carboxylic acid diethylamide]: 6.23; `CC1CCCN(C(=O)c2cc(N)c3nc(-c4ccccn4)nn3c2)C1` (centres unmarked) [Example 30, (8-Amino-2-pyridin-2-yl-[1,2,4]triazolo[1,5-a]pyridin-6-yl)-(3-methyl-piperidin-1-yl)-methanone]: 6.24; `CCCN(C)C(=O)c1cc(N)c2nc(-c3ccccn3)nn2c1` [Example 31, 8-Amino-2-pyridin-2-yl-[1,2,4]triazolo[1,5-a]pyridine-6-carboxylic acid methyl-propyl-amide]: 6.10.
In the case of `CN(CCc1ccccc1)C(=O)c1cc(N)c2nc(-c3ccccn3)nn2c1` [Example 32, 8-Amino-2-pyridin-2-yl-[1,2,4]triazolo[1,5-a]pyridine-6-carboxylic acid methyl-phenethyl-amide], the pKi is 6.41.
Next, `CCN(CC)C(=O)c1cc(N)c2nc(-c3ccco3)nn2c1` [Example 33, 8-Amino-2-furan-2-yl-[1,2,4]triazolo[1,5-a]pyridine-6-carboxylic acid diethylamide]: 6.37; `CC(C)N(Cc1ccccc1)C(=O)c1cc(N)c2nc(-c3ccco3)nn2c1` [Example 36, 8-Amino-2-furan-2-yl-[1,2,4]triazolo[1,5-a]pyridine-6-carboxylic acid benzyl-isopropyl-amide]: 6.64; `CCCN(CCC)C(=O)c1cc(N)c2nc(-c3ccco3)nn2c1` [Example 38, 8-Amino-2-furan-2-yl-[1,2,4]triazolo[1,5-a]pyridine-6-carboxylic acid dipropylamide]: 6.43.
Next, `CCN(CC)C(=O)C1CCCN(C(=O)c2cc(N)c3nc(-c4ccco4)nn3c2)C1` (centres unmarked) [Example 40, 1-(8-Amino-2-furan-2-yl-[1,2,4]triazolo[1,5-a]pyridine-6-carbonyl)-piperidine-3-carboxylic acid diethylamide]: 6.43; `CN(C)C(=O)CN(C)C(=O)c1cc(N)c2nc(-c3ccco3)nn2c1` [Example 44, 8-Amino-2-furan-2-yl-[1,2,4]triazolo[1,5-a]pyridine-6-carboxylic acid dimethylcarbamoyl-methyl-methyl-amide]: 6.47.
Consider `CCN(CCOC)C(=O)c1cc(N)c2nc(-c3ccco3)nn2c1` [Example 45, 8-Amino-2-furan-2-yl-[1,2,4]triazolo[1,5-a]pyridine-6-carboxylic acid ethyl-(2-methoxy-ethyl)-amide], for which the pKi is 6.30.
As for `CCCN(C)C(=O)c1cc(N)c2nc(-c3ccco3)nn2c1` [Example 47, 8-Amino-2-furan-2-yl-[1,2,4]triazolo[1,5-a]pyridine-6-carboxylic acid methyl-propyl-amide], the figure is 6.62; as for `Nc1cc(C(=O)N2CCSCC2)cn2nc(-c3ccco3)nc12` [Example 49, (8-Amino-2-furan-2-yl-[1,2,4]triazolo[1,5-a]pyridin-6-yl)-thiomorpholin-4-yl-methanone], 6.20.
As for `CN(CCc1ccccc1)C(=O)c1cc(N)c2nc(-c3ccco3)nn2c1` [Example 50, 8-Amino-2-furan-2-yl-[1,2,4]triazolo[1,5-a]pyridine-6-carboxylic acid methyl-phenethyl-amide], the figure is 6.60; as for `Nc1cc(C(=O)N2CCCCC2)cn2nc(-c3cccs3)nc12` [Example 52, (8-Amino-2-thiophen-2-yl-[1,2,4]triazolo[1,5-a]pyridin-6-yl)-piperidin-1-yl-methanone], 6.45.
As for `CC1CCCN1C(=O)c1cc(N)c2nc(-c3cccs3)nn2c1` (centres unmarked) [Example 53, (8-Amino-2-thiophen-2-yl-[1,2,4]triazolo[1,5-a]pyridin-6-yl)-(2-methyl-pyrrolidin-1-yl)-methanone], the figure is 6.63; as for `CCCN(CCC)C(=O)c1cc(N)c2nc(-c3cccs3)nn2c1` [Example 54, 8-Amino-2-thiophen-2-yl-[1,2,4]triazolo[1,5-a]pyridine-6-carboxylic acid dipropylamide], 6.26; as for `CC1CCCCN1C(=O)c1cc(N)c2nc(-c3cccs3)nn2c1` (centres unmarked) [Example 55, (8-Amino-2-thiophen-2-yl-[1,2,4]triazolo[1,5-a]pyridin-6-yl)-(2-methyl-piperidin-1-yl)-methanone], 6.59.
For the compound `CCN(CC)C(=O)C1CCCN(C(=O)c2cc(N)c3nc(-c4cccs4)nn3c2)C1` (centres unmarked) [Example 56, 1-(8-Amino-2-thiophen-2-yl-[1,2,4]triazolo[1,5-a]pyridine-6-carbonyl)-piperidine-3-carboxylic acid diethylamide], the pKi was 6.16.
Next, `COC[C@H]1CCCN1C(=O)c1cc(N)c2nc(-c3cccs3)nn2c1` [Example 57, (8-Amino-2-thiophen-2-yl-[1,2,4]triazolo[1,5-a]pyridin-6-yl)-(2-R-methoxymethyl-pyrrolidin-1-yl)-methanone]: 6.62; `COC[C@@H]1CCCN1C(=O)c1cc(N)c2nc(-c3cccs3)nn2c1` [Example 58, (8-Amino-2-thiophen-2-yl-[1,2,4]triazolo[1,5-a]pyridin-6-yl)-(2-S-methoxymethyl-pyrrolidin-1-yl)-methanone]: 6.05.
As for `NC(=O)[C@H]1CCCN1C(=O)c1cc(N)c2nc(-c3cccs3)nn2c1` [Example 59, 1-(8-Amino-2-thiophen-2-yl-[1,2,4]triazolo[1,5-a]pyridine-6-carbonyl)-pyrrolidine-2-R-carboxylic acid amide], the pKi is 6.67.
Turning to `CN(C)C(=O)CN(C)C(=O)c1cc(N)c2nc(-c3cccs3)nn2c1` [Example 60, 8-Amino-2-thiophen-2-yl-[1,2,4]triazolo[1,5-a]pyridine-6-carboxylic acid dimethylcarbamoyl-methyl-methyl-amide], the pKi was 6.26.
Take `CCN(CCOC)C(=O)c1cc(N)c2nc(-c3cccs3)nn2c1` [Example 61, 8-Amino-2-thiophen-2-yl-[1,2,4]triazolo[1,5-a]pyridine-6-carboxylic acid ethyl-(2-methoxy-ethyl)-amide]: the pKi was 6.04.
As for `CC1CCCN(C(=O)c2cc(N)c3nc(-c4cccs4)nn3c2)C1` (centres unmarked) [Example 62, (8-Amino-2-thiophen-2-yl-[1,2,4]triazolo[1,5-a]pyridin-6-yl)-(3-methyl-piperidin-1-yl)-methanone], the pKi was 6.15.
For the compound `CCCN(C)C(=O)c1cc(N)c2nc(-c3cccs3)nn2c1` [Example 63, 8-Amino-2-thiophen-2-yl-[1,2,4]triazolo[1,5-a]pyridine-6-carboxylic acid methyl-propyl-amide], the pKi is 6.36.
Turning to `CCN(CCc1ccccn1)C(=O)c1cc(N)c2nc(-c3cccs3)nn2c1` [Example 65, 8-Amino-2-thiophen-2-yl-[1,2,4]triazolo[1,5-a]pyridine-6-carboxylic acid ethyl-(2-pyridin-2-yl-ethyl)-amide], the pKi was 6.14.
As for `Nc1cc(C(=O)N2CCSCC2)cn2nc(-c3cccs3)nc12` [Example 66, (8-Amino-2-thiophen-2-yl-[1,2,4]triazolo[1,5-a]pyridin-6-yl)-thiomorpholin-4-yl-methanone], the pKi is 6.01.
As for `CN(CCc1ccccc1)C(=O)c1cc(N)c2nc(-c3cccs3)nn2c1` [Example 67, 8-Amino-2-thiophen-2-yl-[1,2,4]triazolo[1,5-a]pyridine-6-carboxylic acid methyl-phenethyl-amide], the figure is 6.40; as for `Nc1cc(C(=O)N2CCCC2)cn2nc(-c3ccccc3)nc12` [Example 68, (8-Amino-2-phenyl-[1,2,4]triazolo[1,5-a]pyridin-6-yl)-pyrrolidin-1-yl-methanone], 6.61; as for `Nc1cc(C(=O)N2CCCCC2)cn2nc(-c3ccccc3)nc12` [Example 69, (8-Amino-2-phenyl-[1,2,4]triazolo[1,5-a]pyridin-6-yl)-piperidin-1-yl-methanone], 6.26.
